row,Compound,melting point [°C]
1,CCCCCON=C(C(=O)OCC)c1csc(N)n1,86 to 88
2,NCCOc1nc2ccccc2n1C1CCN(C2(c3ccccc3)CCCCCC2)CC1,180 to 184
3,CC(C)CCCC(C)CCCC(C)CCCC(C)(O)C(CO)NCCO (stereo unspecified),49.1 to 50.2
4,COc1cc(O)c2c(=O)c(OC)c(-c3ccc(OC(=O)C(O)C(O)C(=O)O)c(OC)c3)oc2c1 (stereo unspecified),179 to 180
5,O=C1CC2C(CC(OC(=O)c3ccccc3)C2C=CC(O)C2(F)CCCC2)O1 (stereo unspecified),73 to 74
6,CCOC(=O)c1oc2ccc(Cl)cc2c1CBr,112 to 114
7,CN(C)C=C1Nn2c(nc(-c3ccc([N+](=O)[O-])o3)c2N)S1,304
8,OCC(COCCCCCCCCOc1ccc(-c2ccccc2)cc1)OCc1ccccc1 (stereo unspecified),48 to 50
9,CCNC(=S)NS(=O)(=O)c1cc2c(cc1OC)OC(C)(C)C(NC(=O)c1cc(F)ccc1OC)C2 (stereo unspecified),211
10,CCOc1cc(Cc2cnc(N)nc2N)cc2c1OC(C)(C)C=C2C(C)(O)CC (stereo unspecified),127 to 128
11,N#Cc1[nH]c(Br)c(-c2ccc(Cl)cc2)c1Br,191 to 194
12,COc1cc(S(N)(=O)=O)cnc1N=Nc1cc(OC(C)C)c2ccccc2c1O,289
13,CN1CCC(c2c[nH]c3ccc(SCc4ccccc4)cc23)CC1,138 to 141
14,Cc1ccc(-c2c(Cl)nc3ncnn3c2Cl)c(F)c1,152
15,CC(C)(C)C(=O)Nc1ccc(Br)cn1,57 to 59
16,C[C@H](O)CCC[C@H](O)CCCCCc1cc(O)cc(O)c1C(=O)O,116 to 118
17,N#CCC(=O)c1ccccc1Cl,56 to 58
18,NC(=O)CCn1c2ccc(O)cc2c2c3c(c(-c4ccccc4Cl)cc21)C(=O)NC3=O,319 to 322
19,CC(=O)Nc1ccc(Sc2ccc(F)cc2)cc1,140 to 141
20,CCC1(CCOC2CCCCO2)C(=O)NNC1=O (stereo unspecified),188 to 191
21,COC(=O)c1c(C)c(OC)cc(O[Si](C)(C)C(C)(C)C(C)C)c1C=O,69 to 70
22,CC(=O)Oc1cc(C(C)C)ccc1C1(OC(C)=O)C(=O)c2cccc(N)c2C1=O (stereo unspecified),148 to 151
23,Cn1nc(C(F)(F)F)cc1Oc1cc(Cl)c(Cl)cc1[N+](=O)[O-],99 to 100
24,Cn1ncc2c1C(=O)C(Cl)=C(Cl)C2=O,176 to 177
25,O=c1[nH]c2ccc(-c3cccc([N+](=O)[O-])c3)cc2s1,276 to 277
26,COc1cc2c(cc1OC)C1CC(=O)C3CCCC3N1CC2 (stereo unspecified),105 to 114
27,CCC(=O)OC(C#N)C(C#N)c1cccc(OC)c1 (stereo unspecified),73

# Second part, the molecule after the results:
row,melting point [°C],Compound
1,277 to 281,CC(C)(CO)n1cnc2c(N)nc3ccccc3c21
2,91 to 92,CCOC(=O)C(C)Oc1ccc(N(C)c2nc3ccc(Br)cc3o2)cc1 (stereo unspecified)
3,156 to 157,Cc1noc(NC(=O)N2CCC(c3nc(-c4ccccc4)cs3)CC2)c1C
4,177 to 178,CCOC(=O)c1cn(C(C)C(=O)c2ccccc2)c2nc(-c3ccccc3)c(C)n2c1=O (stereo unspecified)
5,76 to 77,CC(C)CCC(=O)N1C(=O)O[C@H](c2ccccc2)[C@@H]1C
6,238 to 240,CS(=O)(=O)N1CC=C(c2ccc3cnc(Nc4ccc(N5CCOCC5)cc4)nn23)CC1
7,300,O=C(NN=Cc1ccc([N+](=O)[O-])o1)c1ncn2ccccc12
8,202 to 204,CC(C)NC(C)CC1=C2c3ccc(O)cc3CCC2CCNC1=O (stereo unspecified)
9,150 to 153,FC(F)C(F)(F)Oc1cccc(Nc2nccc(-c3ccnc(Cl)c3)n2)c1
10,110 to 112,CCOC(=O)c1ccc(-c2coc(-c3ccccc3)n2)cc1
11,198 to 206,CCNC(=O)c1ccc(N2CCN(Cc3cc(Cc4ccccc4)c4c(c3)NC(=O)C(C)O4)CC2)cc1 (stereo unspecified)
12,249 to 251,CCNCC1CCN(c2c(F)cc3c(=O)c(C(=O)O)cn(-c4ccc(F)cc4)c3c2F)C1 (stereo unspecified)
13,164 to 165,COc1ccc(-c2csc(N(C(C)=O)c3cc4ccccc4cn3)n2)cc1OC
14,156 to 158,Nc1c(CC(=O)N2CCOCC2)cccc1C(=O)c1ccccc1
15,236 to 238,Cc1ccccc1-c1cccc2c1CNC(=O)N2c1ccccc1
16,132 to 133,O=C(NCC(=O)c1ccco1)c1ccccc1
17,70 to 75,COC(=O)CC1=C(C)C(O)c2ccc(C#N)cc21 (stereo unspecified)
18,232 to 234,COc1ccc(C(=O)O)c(-c2ccc(C(F)(F)F)cc2)c1
19,128,Cc1ccc(F)cc1NC(=O)CN1CCNC(CO)C1 (stereo unspecified)
20,139 to 140,CC(=O)OC1(Cc2ccncc2)C(=O)N(N2CCCCC2)c2ccccc21 (stereo unspecified)
21,86 to 88,COC(=O)CCC(NC(=O)c1cn(C(c2ccccc2)(c2ccccc2)c2ccccc2)c(I)n1)C(=O)OC (stereo unspecified)
22,> 230,Nc1ccc(-c2nc3c(O)cccc3c(=O)[nH]2)cc1
23,180,NNC(=O)C[C@H](O)c1ccccc1
24,203 to 205,CON=C(C)c1nc(-c2cccnc2)[nH]c1C

# Source: a melting point compilation (Tetko et al.; mined from patent text by program, amines drawn as free bases though some values may be those of a salt)
